The values below come from patent US12448375B2, “Kinase inhibitors for the treatment of neurodegenerative diseases” (Ohio State Innovation Foundation, priority 2019, dated 2025).

The structures appear in SMILES notation.

The term IC50 denotes the concentration that inhibits the measured activity by half. High values mean weaker potency in that assay, low ones greater potency in that assay.

What all share (type): biochemical
What all share (settings): HotSpot radiometric assay, 33P-ATP

For experiment [1], the target named is T1, JNK3 (Homo sapiens, UniProt P53779).
T1 construct: purchased Reaction Biology Corp
Briefly: HotSpot Kinase Assay (Reaction Biology Corp.), anti-JNK3 activity. As for the experimental part: (§1) The anti-JNK3 activity of compounds prepared as in the previous examples was evaluated using a Reaction Biology Corp. HotSpot Kinase Assay. Base reaction buffer was 20 mM HEPES (4-(2-hydroxyethyl)-1-piperazineethanesulfonic acid) at pH 7.5 with 10 mM MgCl2, 1 mM EGTA (ethylene glycol-bis(β-aminoethyl ether)-N,N,N′,N′-tetracetic acid), 0.02% Brij™ 35, 0.02 mg/mL BSA (bovine serum albumin), 0.1 mM Na3VO4, 2 mM DTT (dithiothreitol), and 1% DMSO. Required cofactors were added individually to each kinase reaction.
(§2) Activity against related enzymes JNK1 and P38a was further assessed using the same assay.

Experiment [2] deals with T2, p38a (Homo sapiens, UniProt Q16539).
T2 construct: purchased Reaction Biology Corp
The experiment is described as follows: HotSpot Kinase Assay, P38a. As for the experimental part: as §1, §2

Experiment [3] concerns the target T3, JNK1 (Homo sapiens, UniProt P45983).
T3 construct: purchased Reaction Biology Corp
Briefly: HotSpot Kinase Assay, JNK1. How it is done:
as §1, §2

T3 sequence (P45983 whole entry): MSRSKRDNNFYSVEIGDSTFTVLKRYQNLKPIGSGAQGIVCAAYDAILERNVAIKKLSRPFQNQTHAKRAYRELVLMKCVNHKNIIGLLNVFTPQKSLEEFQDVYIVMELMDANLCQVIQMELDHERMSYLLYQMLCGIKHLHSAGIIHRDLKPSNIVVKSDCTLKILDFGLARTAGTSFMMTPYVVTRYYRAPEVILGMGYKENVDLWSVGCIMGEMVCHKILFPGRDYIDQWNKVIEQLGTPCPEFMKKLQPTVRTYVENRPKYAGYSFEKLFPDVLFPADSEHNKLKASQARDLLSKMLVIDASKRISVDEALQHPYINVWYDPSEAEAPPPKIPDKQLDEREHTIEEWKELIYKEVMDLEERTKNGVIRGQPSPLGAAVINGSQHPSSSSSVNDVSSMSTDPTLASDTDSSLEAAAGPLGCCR
T1 sequence (P53779 whole entry): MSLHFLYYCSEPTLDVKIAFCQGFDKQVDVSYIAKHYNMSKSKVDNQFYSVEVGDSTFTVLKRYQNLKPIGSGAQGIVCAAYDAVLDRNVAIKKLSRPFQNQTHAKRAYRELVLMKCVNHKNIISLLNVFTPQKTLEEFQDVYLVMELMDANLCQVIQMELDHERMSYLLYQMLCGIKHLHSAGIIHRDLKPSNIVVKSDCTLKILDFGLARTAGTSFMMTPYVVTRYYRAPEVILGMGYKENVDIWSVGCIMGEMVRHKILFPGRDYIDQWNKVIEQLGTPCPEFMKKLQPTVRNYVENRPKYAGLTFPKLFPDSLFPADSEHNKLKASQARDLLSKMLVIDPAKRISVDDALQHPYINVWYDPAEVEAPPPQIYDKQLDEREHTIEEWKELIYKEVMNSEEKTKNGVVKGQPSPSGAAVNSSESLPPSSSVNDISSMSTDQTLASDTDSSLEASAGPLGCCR
T2 sequence (Q16539 whole entry): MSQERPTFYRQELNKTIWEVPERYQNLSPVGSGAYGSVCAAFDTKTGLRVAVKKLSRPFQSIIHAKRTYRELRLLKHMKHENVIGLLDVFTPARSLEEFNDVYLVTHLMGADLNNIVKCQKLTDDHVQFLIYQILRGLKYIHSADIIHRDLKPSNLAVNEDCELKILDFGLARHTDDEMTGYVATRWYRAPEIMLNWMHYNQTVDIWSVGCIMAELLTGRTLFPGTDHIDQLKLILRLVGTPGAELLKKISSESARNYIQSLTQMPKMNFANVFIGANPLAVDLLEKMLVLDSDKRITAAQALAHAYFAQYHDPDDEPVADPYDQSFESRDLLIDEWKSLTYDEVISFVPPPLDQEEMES

With `CC(C)NC(=O)c1cc(-n2ncc3cc(Oc4ccccc4Cl)ncc32)cs1` [Compound 7, 4-(5-(2-chlorophenoxy)-1H-pyrazolo[3,4-c]pyridine-1-yl)-N-isopropylthiophene-2-carboxamide], the half-inhibitory concentration (IC50) is less than 200 nM in experiment [1], more than 1000 nM in experiment [2] and more than 1000 nM in experiment [3].
As for `O=C(NC1CN(C2CC2)C1)c1cc(-n2ncc3cc(Oc4ccccc4Cl)ccc32)cs1` [Compound 10, 4-(5-(2-chlorophenoxy)-1H-indazol-1-yl)-N-(1-cyclopropylazetidin-3-yl)thiophene-2-carboxamide], the figures for the IC50 in experiment [1], in experiment [2] and in experiment [3] were less than 200 nM, 200 to 1000 nM and more than 1000 nM, respectively.
Taken in the same sequence, the figures for `O=C(NC1COC1)c1cc(-n2ncc3cc(Oc4ccccc4Cl)ccc32)cs1` [Compound 11, 4-(5-(2-chlorophenoxy)-1H-indazol-1-yl)-N-(oxetan-3-yl)thiophene-2-carboxamide] were less than 200 nM, more than 1000 nM and more than 1000 nM.
Turning to `COCC(COC)NC(=O)c1cc(-n2ncc3cc(Oc4ccccc4Cl)ncc32)cs1` [Compound 12, 4-(5-(2-chlorophenoxy)-1H-pyrazolo[3,4-c]pyridin-1-yl)-N-(1,3-dimethoxypropan-2-yl)thiophene-2-carboxamide], the 50% inhibitory concentration (IC50) in experiment [1] is 200 to 1000 nM; in experiment [2] it was more than 1000 nM; in experiment [3], more than 1000 nM.
Regarding `[2H]C([2H])([2H])N1CC[C@@H](NC(=O)c2cc(-n3ncc4cc(Oc5ccccc5Cl)ccc43)cs2)C1` [Compound 13, (R)-4-(5-(2-chlorophenoxy)-1H-indazol-1-yl)-N-(1-(methyl-d3)pyrrolidin-3-yl)thiophene-2-carboxamide], the IC50 in experiment [1] is less than 200 nM; in experiment [2] it was 200 to 1000 nM; in experiment [3] it was more than 1000 nM.
In the case of `COCCNC(=O)c1cc(-n2ncc3cc(Oc4ccccc4Cl)ncc32)cs1` [Compound 14, 4-(5-(2-chlorophenoxy)-1H-pyrazolo[3,4-c]pyridin-1-yl)-N-(2-methoxyethyl)thiophene-2-carboxamide], the IC50 in experiment [1] is less than 200 nM; in experiment [2], more than 1000 nM; in experiment [3] it was more than 1000 nM.
The molecule `CNC(=O)c1cc(-n2ncc3cc(Oc4ccccc4Cl)ncc32)cs1` [Compound 15, 4-(5-(2-chlorophenoxy)-1H-pyrazolo[3,4-c]pyridin-1-yl)-N-methylthiophene-2-carboxamide] showed an IC50 in experiment [1] of less than 200 nM.
Take `CC(C)NC(=O)c1cc(-n2ncc3cc(Nc4ccccc4Cl)ncc32)cs1` [Compound 16, 4-(5-((2-chlorophenyl)amino)-1H-pyrazolo[3,4-c]pyridin-1-yl)-N-isopropylthiophene-2-carboxamide]: the values for the IC50 in experiment [1], in experiment [2] and in experiment [3] were less than 200 nM, 200 to 1000 nM and 200 to 1000 nM, respectively.
Turning to `COCCNC(=O)c1cc(-n2ncc3cc(Nc4ccccc4Cl)ncc32)cs1` [Compound 17, 4-(5-((2-chlorophenyl)amino)-1H-pyrazolo[3,4-c]pyridin-1-yl)-N-(2-methoxyethyl)thiophene-2-carboxamide], the IC50 is less than 200 nM in experiment [1], less than 200 nM in experiment [2] and 200 to 1000 nM in experiment [3].
As to `CCNC(=O)c1cc(-n2ncc3cc(Oc4ccccc4Cl)ncc32)cs1` [Compound 18, 4-(5-(2-chlorophenoxy)-1H-pyrazolo[3,4-c]pyridin-1-yl)-N-ethylthiophene-2-carboxamide], the concentration for half-maximal inhibition (IC50) in experiment [1] is less than 200 nM.
On the same count and under the same terms, next, `Cn1cnc(NC(=O)c2cc(-n3ncc4cc(Nc5ccccc5Cl)ncc43)cs2)c1` [Compound 19, 4-(5-((2-chlorophenyl)amino)-1H-pyrazolo[3,4-c]pyridin-1-yl)-N-(1-methyl-1H-imidazol-4-yl)thiophene-2-carboxamide]: less than 200 nM.
On the same count and under the same terms, for `O=C(NC1COC1)c1cc(-n2ncc3cc(Nc4ccccc4Cl)ncc32)cs1` [Compound 20, 4-(5-((2-chlorophenyl)amino)-1H-pyrazolo[3,4-c]pyridin-1-yl)-N-(oxetan-3-yl)thiophene-2-carboxamide] the value was less than 200 nM.
The same measure, in the same setting: next, `CN1CCN=C1NC(=O)c1cc(-n2ncc3cc(Nc4ccccc4Cl)ncc32)cs1` [Compound 21, 4-(5-((2-chlorophenyl)amino)-1H-pyrazolo[3,4-c]pyridin-1-yl)-N-(1-methyl-4,5-dihydro-1H-imidazol-2-yl)thiophene-2-carboxamide]: less than 200 nM.
Regarding `CC(=O)N1CC(NC(=O)c2cc(-n3ncc4cc(Nc5ccccc5Cl)ncc43)cs2)C1` [Compound 22, N-(1-acetylazetidin-3-yl)-4-(5-((2-chlorophenyl)amino)-1H-pyrazolo[3,4-c]pyridin-1-yl)thiophene-2-carboxamide], the IC50 in experiment [1] was less than 200 nM.
On the same count and under the same terms, next, `O=C(NC1COC1)c1cc(-n2ncc3cc(Oc4ccccc4Cl)ncc32)cs1` [Compound 23, 4-(5-(2-chlorophenoxy)-1H-pyrazolo[3,4-c]pyridin-1-yl)-N-(oxetan-3-yl)thiophene-2-carboxamide]: 200 to 1000 nM; `CNC(=O)c1cc(-n2ncc3cc(Nc4cccc(F)c4Cl)ncc32)cs1` [Compound 24, 4-(5-((2-chloro-3-fluorophenyl)amino)-1H-pyrazolo[3,4-c]pyridin-1-yl)-N-methylthiophene-2-carboxamide]: less than 200 nM; `CCNC(=O)c1cc(-n2ncc3cc(Nc4ccccc4Cl)ncc32)cs1` [Compound 26, 4-(5-((2-chlorophenyl)amino)-1H-pyrazolo[3,4-c]pyridin-1-yl)-N-ethylthiophene-2-carboxamide]: less than 200 nM.
On the same count and under the same terms, next, `CC(=O)N1CC(NC(=O)c2cc(-n3ncc4cc(Nc5ccccc5Cl)ccc43)cs2)C1` [Compound 29, N-(1-acetylazetidin-3-yl)-4-(5-((2-chlorophenyl)amino)-1H-indazol-1-yl)thiophene-2-carboxamide]: less than 200 nM; `COC(=O)N1CC(NC(=O)c2cc(-n3ncc4cc(Nc5ccccc5Cl)ccc43)cs2)C1` [Compound 33, Methyl 3-(4-(5-((2-chlorophenyl)amino)-1H-indazol-1-yl)thiophene-2-carboxamido)azetidine-1-carboxylate]: less than 200 nM.
Still for that read-out and setting: next, `CNC(=O)c1cc(-n2ncc3nc(Nc4ccccc4Cl)ncc32)cs1` [Compound 41, 4-(5-((2-chlorophenyl)amino)-1H-pyrazolo[4,3-d]pyrimidin-1-yl)-N-methylthiophene-2-carboxamide]: 200 to 1000 nM; `O=C(NCCCF)c1cc(-n2ncc3nc(Nc4ccccc4Cl)ncc32)cs1` [Compound 42, 4-(5-((2-chlorophenyl)amino)-1H-pyrazolo[4,3-d]pyrimidin-1-yl)-N-(3-fluoropropyl)thiophene-2-carboxamide]: less than 200 nM; `O=C(NC1=NCCO1)c1cc(-n2ncc3cc(Nc4ccccc4Cl)c(F)cc32)cs1` [Compound 43, 4-(5-((2-chlorophenyl)amino)-6-fluoro-1H-indazol-1-yl)-N-(4,5-dihydrooxazol-2-yl)thiophene-2-carboxamide]: less than 200 nM.
Regarding `CN1CCN=C1NC(=O)c1cc(-n2ncc3cc(Nc4ccccc4Cl)ccc32)cs1` [Compound 45, 4-(5-((2-chlorophenyl)amino)-1H-indazol-1-yl)-N-(1-methyl-4,5-dihydro-1H-imidazol-2-yl)thiophene-2-carboxamide], in experiment [1], the IC50 is less than 200 nM.
`N#CCNC(=O)c1cc(-n2ncc3cc(Nc4ccccc4Cl)ccc32)cs1` [Compound 46, 4-(5-((2-chlorophenyl)amino)-1H-indazol-1-yl)-N-(cyanomethyl)thiophene-2-carboxamide] yielded an IC50 in experiment [1] of less than 200 nM.
Same read-out and setting: for `O=C(N[C@H]1CCOC1)c1cc(-n2ncc3nc(Nc4ccccc4Cl)ccc32)cs1` [Compound 51, (S)-4-(5-((2-chlorophenyl)amino)-1H-pyrazolo[4,3-b]pyridin-1-yl)-N-(tetrahydrofuran-3-yl)thiophene-2-carboxamide] the value was less than 200 nM; for `Cn1cnc(NC(=O)c2cc(-n3ncc4nc(Nc5ccccc5Cl)ccc43)cs2)c1` [Compound 57, 4-(5-((2-chlorophenyl)amino)-1H-pyrazolo[4,3-b]pyridin-1-yl)-N-(1-methyl-1H-imidazol-4-yl)thiophene-2-carboxamide], less than 200 nM.
The same measure, in the same setting: next, `Cn1ccnc1NC(=O)c1cc(-n2ncc3nc(Nc4ccccc4Cl)ccc32)cs1` [Compound 59, 4-(5-((2-chlorophenyl)amino)-1H-pyrazolo[4,3-b]pyridin-1-yl)-N-(1-methyl-1H-imidazol-2-yl)thiophene-2-carboxamide]: 200 to 1000 nM.
In turn, `CN1C[C@@H](NC(=O)c2cc(-n3ncc4nc(Nc5ccccc5Cl)ccc43)cs2)CC1=O` [Compound 60, (S)-4-(5-((2-chlorophenyl)amino)-1H-pyrazolo[4,3-b]pyridin-1-yl)-N-(1-methyl-5-oxopyrrolidin-3-yl)thiophene-2-carboxamide] came in with an IC50 in experiment [1] of less than 200 nM.
`Cn1cnc(NC(=O)c2cc(-n3ncc4cc(Nc5ccccc5Cl)cnc43)cs2)c1` [Compound 66, 4-(5-((2-chlorophenyl)amino)-1H-pyrazolo[3,4-b]pyridin-1-yl)-N-(1-methyl-1H-imidazol-4-yl)thiophene-2-carboxamide] registered an IC50 in experiment [1] of less than 200 nM.
On to `Cn1ccnc1NC(=O)c1cc(-n2ncc3cc(Nc4ccccc4Cl)cnc32)cs1` [Compound 67, 4-(5-((2-chlorophenyl)amino)-1H-pyrazolo[3,4-b]pyridin-1-yl)-N-(1-methyl-1H-imidazol-2-yl)thiophene-2-carboxamide], for which the half-inhibitory concentration (IC50) in experiment [1] was less than 200 nM.
The molecule `CCNC(=O)c1cc(-n2ncc3cc(Oc4ccccc4Cl)cnc32)cs1` [Compound 73, 4-(5-(2-chlorophenoxy)-1H-pyrazolo[3,4-b]pyridin-1-yl)-N-ethylthiophene-2-carboxamide] came in with an IC50 in experiment [1] of less than 200 nM.
